This is an account of results in PMC8286840, “Identifying SARS-CoV-2 antiviral compounds by screening for small molecule inhibitors of Nsp3 papain-like protease” (Biochemical Journal, 2021).

Where a name gives a salt, the structure may show the parent alone. Read-outs that look alike come from different tables or passages of the source. Where a SMILES comes first, the peptide text is derived from it. [ ]: non-standard residue; d: D form. The star is where a group is joined. Sta = CC(C)C[C@H](N)[C@@H](O)CC(=O)O; Isovaleryl = CC(C)CC(=O)*

In experiment [1] the target is T1, SARS-CoV-2 PLpro (nsp3 1564–1878) (Severe acute respiratory syndrome coronavirus 2, UniProt P0DTD1). The experiment in a line: biochemical. Also on record: FRET-quenched peptide (Pro3) cleavage by PLpro, 10 min pre-incubation, slope over 20 min, normalised to no-compound control. As to conditions: low concentration screen, read-out: % of control remaining.
Experiment [2] deals with T1, SARS-CoV-2 PLpro (nsp3 1564–1878). The experiment in a line: biochemical. The following applies: high concentration screen, read-out: % of control remaining. Set-up: FRET-quenched peptide (Pro3) cleavage by PLpro, 10 min pre-incubation, slope over 20 min, normalised to no-compound control.

With `CNC[C@H](O)c1ccc(O)c(O)c1` (racemic), the remaining activity at 1.25 µM in experiment [1] (Well no.=605) is 99.5%. In addition, the remaining activity at 3.75 µM in experiment [2] (Well no.=605) is 99.2%.
As for `N=C(N)SCCc1c[nH]cn1` [Imetit dihydrobromide], the remaining activity at 1.25 µM in experiment [1] (Well no.=779) amounted to 94.3%. In addition, the remaining activity at 3.75 µM in experiment [2] (Well no.=779) was 94.6%.
On to `Clc1ccc(N2C[C@H]3CC[C@@H](C2)N3)nn1` [DBO-83], for which the remaining activity at 1.25 µM in experiment [1] (Well no.=630) turned out to be 63.4%. Further, the remaining activity at 3.75 µM in experiment [2] (Well no.=630) is 98.1%.
For `OC[C@H]1O[C@@H](O[C@@H]2[C@@H](CO)OC(O)(CO)[C@H]2O)[C@H](O)[C@@H](O)[C@H]1O` (mixture of isomers) [Lactulose], the remaining activity at 1.25 µM in experiment [1] (Well no.=8140) came to 95.7%. The remaining activity at 3.75 µM in experiment [2] (Well no.=8140) amounted to 97.6%.
As to `COc1cc2nc(N3CCN(C(=O)C4COc5ccccc5O4)CC3)nc(N)c2cc1OC` (stereo not shown) [Doxazosin (mesylate)], the remaining activity at 1.25 µM in experiment [1] (Well no.=8187) stood at 105%. Besides, in experiment [2] (Well no.=8187), the remaining activity at 3.75 µM is 102%.
In the case of `O=C1CC[C@@]2(O)[C@H]3Cc4ccc(O)c5c4[C@@]2(CCN3CC2CC2)[C@H]1O5` [Naltrexone hydrochloride], the remaining activity at 1.25 µM in experiment [1] (Well no.=997) came out at 97.6%. The remaining activity at 3.75 µM in experiment [2] (Well no.=997) is 100%.
Take `CC/C(=C(\c1ccccc1)c1ccc(OCCN(C)C)cc1)c1ccccc1` [Tamoxifen citrate]: the remaining activity at 1.25 µM in experiment [1] (Well no.=1184) came out at 97.1%. The remaining activity at 3.75 µM in experiment [2] (Well no.=1184) was determined as 99.3%.
`O=C(O)CC(O)(CC(=O)O)C(=O)O` [Citric acid]: the values for the remaining activity at 1.25 µM in experiment [1] (Well no.=6195) and in experiment [1] (Well no.=6298) were 104% and 103%, respectively. Also, the remaining activity at 3.75 µM in experiment [2] (Well no.=6195) is 103%; in experiment [2] (Well no.=6298) it was 104%.
As to `C[C@@H]1O[C@@H](OC[C@H]2O[C@@H](Oc3cc(O)c4c(c3)O[C@H](c3ccc(O)c(O)c3)CC4=O)[C@H](O)[C@@H](O)[C@@H]2O)[C@H](O)[C@H](O)[C@H]1O` [Eriocitrin], in experiment [1] (Well no.=3257), the remaining activity at 1.25 µM is 98.6%. In addition, in experiment [2] (Well no.=3257), the remaining activity at 3.75 µM amounted to 97.1%.
Regarding `Cc1ncc(Cl)cc1NCc1ccc(C(=O)N[C@@H](CC2CCCC2)C(=O)NC2CC2)s1` [(S)-5-(((5-chloro-2-methylpyridin-3-yl)amino)methyl)-N-(3-cyclopentyl-1-(cyclopropylamino)-1-oxopropan-2-yl)thiophene-2-carboxamide], the remaining activity at 1.25 µM in experiment [1] (Well no.=5550) came out at 94.4%. Besides, the remaining activity at 3.75 µM in experiment [2] (Well no.=5550) came out at 99.3%.
Take `CN(C)CCCN1c2ccccc2Sc2ccc(Cl)cc21` [Chlorpromazine.HCl]: the remaining activity at 1.25 µM in experiment [1] (Well no.=1596) stood at 104%. The remaining activity at 3.75 µM in experiment [2] (Well no.=1596) is 103%.
For the molecule `Cc1cccn2c(=O)c(/C=C(\C#N)c3nc4ccccc4s3)c(Oc3ccc(F)cc3)nc12` [CCG-63808], the remaining activity at 1.25 µM in experiment [1] (Well no.=7037) stood at 102%. The remaining activity at 3.75 µM in experiment [2] (Well no.=7037) amounted to 101%.
As to `CC[C@]12CCCN3CCc4c(n(c5ccccc45)C(=O)C1)[C@@H]32` [(-)-Eburnamonine], in experiment [1] (Well no.=3380), the remaining activity at 1.25 µM was 96.6%. Moreover, the remaining activity at 3.75 µM in experiment [2] (Well no.=3380) came to 95%.
For `CC1(COc2ccc(CC3SC(=O)NC3=O)cc2)CCCCC1` (stereo not shown) [Ciglitizone], the remaining activity at 1.25 µM in experiment [1] (Well no.=222) stood at 99%. The remaining activity at 3.75 µM in experiment [2] (Well no.=222) worked out at 97.7%.
In the case of `CC1(C)O[C@@H]2C[C@H]3[C@@H]4C[C@H](F)C5=CC(=O)C=C[C@]5(C)[C@@]4(F)[C@@H](O)C[C@]3(C)[C@]2(C(=O)CO)O1` [Fluocinolone acetonide], in experiment [1] (Well no.=2126), the remaining activity at 1.25 µM stood at 97.3%. In addition, the remaining activity at 3.75 µM in experiment [2] (Well no.=2126) is 98.4%.
Consider `CCCCC[C@H](O)/C=C/C=C\C/C=C\CCCCCCC(=O)O` [15(S)-HETrE], for which, in experiment [1] (Well no.=4229), the remaining activity at 1.25 µM came to 99.3%. Moreover, in experiment [2] (Well no.=4229), the remaining activity at 3.75 µM turned out to be 106%.
In the case of `C#C[C@]1(O)CC[C@H]2[C@@H]3CCc4cc(O)ccc4[C@H]3CC[C@@]21C` [Ethynyl Estradiol], the remaining activity at 1.25 µM in experiment [1] (Well no.=6487) worked out at 103%. The remaining activity at 3.75 µM in experiment [2] (Well no.=6487) was determined as 102%.
For `NS(=O)(=O)c1cc2c(cc1Cl)NCNS2(=O)=O` [Hydrochlorothiazide], the remaining activity at 1.25 µM in experiment [1] (Well no.=658) amounted to 100%. Further, the remaining activity at 3.75 µM in experiment [2] (Well no.=658) came out at 98.6%.
For the molecule `Cc1sc(C)c(C(=O)NC2(c3ccc(C(=O)O)cc3)CC2)c1Cc1ccc(C(F)(F)F)cc1` [MK-2894], in experiment [1] (Well no.=7101), the remaining activity at 1.25 µM was 94.3%. Further, the remaining activity at 3.75 µM in experiment [2] (Well no.=7101) stood at 90.7%.
As to `COc1cc(OC)c(C=C2C(=O)Nc3ccccc32)c(OC)c1` [IC261], in experiment [1] (Well no.=2506), the remaining activity at 1.25 µM amounted to 103%. For the same molecule, the remaining activity at 3.75 µM in experiment [2] (Well no.=2506) is 103%.
Turning to `Cc1ncc([N+](=O)[O-])n1CC(C)O` (stereo not shown) [Secnidazole], the remaining activity at 1.25 µM in experiment [1] (Well no.=2247) was determined as 99.7%. In addition, the remaining activity at 3.75 µM in experiment [2] (Well no.=2247) came to 97.7%.
Turning to `CC(C)CC(=O)N[C@H](C(=O)N[C@H](C(=O)N[C@@H](CC(C)C)[C@@H](O)CC(=O)N[C@@H](C)C(=O)N[C@@H](CC(C)C)[C@@H](O)CC(=O)O)C(C)C)C(C)C` [Pepstatin A] (Isovaleryl-VV[Sta]A[Sta]-OH), the remaining activity at 1.25 µM in experiment [1] (Well no.=8764) is 91.3%. In experiment [2] (Well no.=8764), the remaining activity at 3.75 µM stood at 92.8%.
Consider `C/C=C1\C[C@@H](C)[C@](O)(CO)C(=O)OCC2=CCN3CC[C@@H](OC1=O)[C@@H]23` [Retrorsine], for which the remaining activity at 1.25 µM in experiment [1] (Well no.=3298) amounted to 99.9%. Also, in experiment [2] (Well no.=3298), the remaining activity at 3.75 µM is 104%.
Turning to `COc1cc2c(cc1OC)[C@@H]1Cc3ccc(OC)c(OC)c3CN1CC2` [Rotundine], in experiment [1] (Well no.=4894), the remaining activity at 1.25 µM worked out at 96.9%. The remaining activity at 3.75 µM in experiment [2] (Well no.=4894) turned out to be 94.7%.
Take `C[N+]1(C)CCN(c2ccccc2)CC1` [1,1-Dimethyl-4-phenyl-piperazinium iodide]: the remaining activity at 1.25 µM in experiment [1] (Well no.=741) was determined as 92%. Moreover, the remaining activity at 3.75 µM in experiment [2] (Well no.=741) stood at 92.3%.
`O=C(O)[C@H]1NCCC[C@H]1C(=O)O`: the remaining activity at 1.25 µM in experiment [1] (Well no.=1161) amounted to 106%. In addition, the remaining activity at 3.75 µM in experiment [2] (Well no.=1161) is 106%.
On to `O=C(O)CNC(=O)c1cccnc1` [Nicotinuric acid], for which the remaining activity at 1.25 µM in experiment [1] (Well no.=6537) was 109%. Further, the remaining activity at 3.75 µM in experiment [2] (Well no.=6537) is 105%.
Turning to `Cc1ccc(C(=O)Nc2cccc(C(F)(F)F)c2)cc1Nc1nc(-c2cccnc2)nc2c1cnn2C` [NVP-BHG712], the remaining activity at 1.25 µM in experiment [1] (Well no.=4820) was 100%. Further, the remaining activity at 3.75 µM in experiment [2] (Well no.=4820) was determined as 96.9%.
In the case of `O=C(CCCCCCc1ccccc1)c1ncc(-c2ccccn2)o1` [7-phenyl-1-[5-(2-pyridinyl)-1,3-oxazol-2-yl]-1-heptanone], the remaining activity at 1.25 µM in experiment [1] (Well no.=5997) amounted to 92.2%. For the same molecule, in experiment [2] (Well no.=5997), the remaining activity at 3.75 µM amounted to 91.9%.
As to `CN1[C@@H]2CC[C@H]1C[C@@H](OC(c1ccccc1)c1ccccc1N)C2` (stereo partly shown) [Aminobenztropine], in experiment [1] (Well no.=206), the remaining activity at 1.25 µM amounted to 97.2%. Further, the remaining activity at 3.75 µM in experiment [2] (Well no.=206) came to 98.3%.
`CC(C)[C@H](N)C(=O)N[C@@H](Cc1ccccc1)C(=O)O` [L-Valyl-L-phenylalanine] (H-Val-Phe-OH): in experiment [1] (Well no.=8650), the remaining activity at 1.25 µM amounted to 103%. The remaining activity at 3.75 µM in experiment [2] (Well no.=8650) is 101%.
